Reference: PubChem BioAssay AID248 (DTP/NCI, 2004)
“And” between values parts separate entries of the source, which are not always exact repeats. Identical values can stand only once. Toxic doses and inconclusive results are not listed. Cut-off read from the data, not from the text of the source: active = T/C of 150% or more; inactive = T/C below 125%.

Tested on: L1210 leukemia ip in BDF1 mice, survival T/C
Test: NCI In Vivo Anticancer Drug Screen. Data for tumor model L1210 Leukemia (intraperitoneal) in B6D2F1 (BDF1) mice
Settings: higher = longer survival
Procedure, shortened: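 Transplantable tumor model; survival measured in treated vs vehicle control mice. Value = treated/control.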

[1] = endpoint: mean survival time, dose: 100.0 mg/kg/injection, schedule: Q01DX009 (ip), vehicle: saline
[2] = endpoint: mean survival time, dose: 100.0 mg/kg/injection, schedule: Q04DX003 (ip), vehicle: Klucel (hydroxypropylcellulose) (HPC)
[3] = endpoint: mean survival time, dose: 200.0 mg/kg/injection, schedule: Q01DX009 (ip), vehicle: saline
[4] = endpoint: mean survival time, dose: 400.0 mg/kg/injection, schedule: Q01DX009 (ip), vehicle: saline

Measured: T/C

NC(=O)NC(O)C(Cl)(Cl)Cl (centres undefined)
inactive: endpoint: mean survival time, dose: 100.0 mg/kg/injection, schedule: Q01DX009 (ip), vehicle: Klucel (hydroxypropylcellulose) (HPC) 100 % of control | endpoint: mean survival time, dose: 200.0 mg/kg/injection, schedule: Q01DX009 (ip), vehicle: Klucel (hydroxypropylcellulose) (HPC) 100 % of control | endpoint: mean survival time, dose: 400.0 mg/kg/injection, schedule: Q01DX009 (ip), vehicle: Klucel (hydroxypropylcellulose) (HPC) 93 % of control

CCOc1ccc2cc(S(=O)(=O)O)ccc2c1N
inactive: [1] 93 % of control | [2] 97 % of control | [3] 95 % of control | endpoint: mean survival time, dose: 200.0 mg/kg/injection, schedule: Q04DX003 (ip), vehicle: Klucel (hydroxypropylcellulose) (HPC) 98 % of control | [4] 87 % of control | endpoint: mean survival time, dose: 400.0 mg/kg/injection, schedule: Q04DX003 (ip), vehicle: Klucel (hydroxypropylcellulose) (HPC) 101 % of control

CCOC(OCC)C(=O)C(C#N)c1ccc(Cl)c(Cl)c1 (centres undefined)
inactive: endpoint: mean survival time, dose: 5.0 mg/kg/injection, schedule: Q01DX001 (ip), vehicle: saline 109 % of control | endpoint: mean survival time, dose: 10.0 mg/kg/injection, schedule: Q01DX001 (ip), vehicle: saline 100 % of control | endpoint: mean survival time, dose: 20.0 mg/kg/injection, schedule: Q01DX001 (ip), vehicle: saline 105 % of control | endpoint: mean survival time, dose: 40.0 mg/kg/injection, schedule: Q01DX001 (ip), vehicle: saline 97 % of control | endpoint: mean survival time, dose: 80.0 mg/kg/injection, schedule: Q01DX001 (ip), vehicle: saline 97 % of control

COc1ccc(C(=O)C(C)C(O)C(=O)O)c(O)c1C (centres undefined)
inactive: endpoint: mean survival time, dose: 100.0 mg/kg/injection, schedule: Q01DX009 (ip), vehicle: saline with Tween-80 96 % of control | endpoint: mean survival time, dose: 100.0 mg/kg/injection, schedule: Q04DX003 (ip), vehicle: saline 97 % of control | endpoint: mean survival time, dose: 200.0 mg/kg/injection, schedule: Q01DX009 (ip), vehicle: saline with Tween-80 100 % of control | endpoint: mean survival time, dose: 200.0 mg/kg/injection, schedule: Q04DX003 (ip), vehicle: saline 94 % of control | endpoint: mean survival time, dose: 400.0 mg/kg/injection, schedule: Q01DX009 (ip), vehicle: saline with Tween-80 102 % of control | endpoint: mean survival time, dose: 400.0 mg/kg/injection, schedule: Q04DX003 (ip), vehicle: saline 98 % of control

CC(C)(C)C(=O)CS(=O)(=O)C(Br)C(=O)C(C)(C)C (centres undefined)
inactive: [2] 100 % of control

O=C(NC1CCC(C(=O)O)CC1)OCc1ccccc1 (centres undefined)
inactive: endpoint: mean survival time, dose: 100.0 mg/kg/injection, schedule: Q01DX001 (ip), vehicle: saline 98 % of control | [1] 109 % of control | endpoint: mean survival time, dose: 100.0 mg/kg/injection, schedule: Q04DX003 (ip), vehicle: acetone 96 % of control | endpoint: mean survival time, dose: 200.0 mg/kg/injection, schedule: Q01DX001 (ip), vehicle: saline 102 % of control | [3] 100 % of control | endpoint: mean survival time, dose: 200.0 mg/kg/injection, schedule: Q04DX003 (ip), vehicle: acetone 102 % of control | endpoint: mean survival time, dose: 400.0 mg/kg/injection, schedule: Q01DX001 (ip), vehicle: saline 98 % of control | [4] 105 % of control | endpoint: mean survival time, dose: 400.0 mg/kg/injection, schedule: Q04DX003 (ip), vehicle: acetone 98 % of control

C/C(=C\c1ccc(C)cc1)[N+](=O)[O-]
inactive: endpoint: mean survival time, dose: 50.0 mg/kg/injection, schedule: Q01DX001 (ip), vehicle: other 108 % of control | endpoint: mean survival time, dose: 100.0 mg/kg/injection, schedule: Q01DX001 (ip), vehicle: other 100 % of control | endpoint: mean survival time, dose: 200.0 mg/kg/injection, schedule: Q01DX001 (ip), vehicle: other 92 % of control | endpoint: mean survival time, dose: 400.0 mg/kg/injection, schedule: Q01DX001 (ip), vehicle: other 103 % of control

COC(=O)C[C@](O)(CCC(C)(C)O)C(=O)O[C@@H]1C(OC)=C[C@]23CCCN2CCc2cc4c(cc2[C@H]13)OCO4
inactive: endpoint: mean survival time, dose: 0.13 mg/kg/injection, schedule: Q#A X018 (ip), vehicle: saline 116 % of control | endpoint: mean survival time, dose: 0.25 mg/kg/injection, schedule: Q01DX009 (ip), vehicle: saline 104 % of control and 117 % of control and 124 % of control | endpoint: mean survival time, dose: 0.25 mg/kg/injection, schedule: Q01DX009 (ip), vehicle: water 118 % of control | endpoint: mean survival time, dose: 0.25 mg/kg/injection, schedule: Q03HX008 (ip), vehicle: saline 109 % of control | endpoint: mean survival time, dose: 0.25 mg/kg/injection, schedule: Q03HX016 (ip), vehicle: saline 113 % of control | endpoint: mean survival time, dose: 0.25 mg/kg/injection, schedule: Q03HX024 (ip), vehicle: saline 118 % of control | endpoint: mean survival time, dose: 0.25 mg/kg/injection, schedule: Q#A X018 (ip), vehicle: saline 114 % of control | endpoint: mean survival time, dose: 0.5 mg/kg/injection, schedule: Q01DX009 (oral), vehicle: saline 105 % of control | endpoint: mean survival time, dose: 0.5 mg/kg/injection, schedule: Q01DX009 (sc), vehicle: saline 110 % of control | endpoint: mean survival time, dose: 0.5 mg/kg/injection, schedule: Q03HX008 (ip), vehicle: saline 116 % of control | endpoint: mean survival time, dose: 0.5 mg/kg/injection, schedule: Q03HX016 (ip), vehicle: saline 107 % of control | endpoint: mean survival time, dose: 0.5 mg/kg/injection, schedule: Q03HX024 (ip), vehicle: saline 119 % of control | endpoint: mean survival time, dose: 0.5 mg/kg/injection, schedule: Q#A X018 (ip), vehicle: saline 122 % of control | endpoint: mean survival time, dose: 1.0 mg/kg/injection, schedule: Q01DX009 (oral), vehicle: saline 111 % of control | endpoint: mean survival time, dose: 1.0 mg/kg/injection, schedule: Q01DX009 (sc), vehicle: saline 121 % of control | endpoint: mean survival time, dose: 1.0 mg/kg/injection, schedule: Q03HX008 (ip), vehicle: saline 124 % of control | endpoint: mean survival time, dose: 2.0 mg/kg/injection, schedule: Q01DX001 (ip), vehicle: saline 113 % of control | endpoint: mean survival time, dose: 2.0 mg/kg/injection, schedule: Q01DX009 (oral), vehicle: saline 112 % of control | endpoint: mean survival time, dose: 2.0 mg/kg/injection, schedule: Q04DX003 (ip), vehicle: saline 105 % of control | endpoint: mean survival time, dose: 2.0 mg/kg/injection, schedule: Q08DX002 (ip), vehicle: saline 101 % of control | endpoint: mean survival time, dose: 2.0 mg/kg/injection, schedule: Q#A X018 (ip), vehicle: saline 113 % of control | endpoint: mean survival time, dose: 4.0 mg/kg/injection, schedule: Q01DX001 (ip), vehicle: saline 110 % of control | endpoint: mean survival time, dose: 4.0 mg/kg/injection, schedule: Q01DX009 (ip), vehicle: saline 119 % of control and 124 % of control | endpoint: mean survival time, dose: 4.0 mg/kg/injection, schedule: Q01DX009 (oral), vehicle: saline 98 % of control | endpoint: mean survival time, dose: 4.0 mg/kg/injection, schedule: Q01DX009 (sc), vehicle: saline 92 % of control | endpoint: mean survival time, dose: 4.0 mg/kg/injection, schedule: Q04DX003 (ip), vehicle: saline 123 % of control | endpoint: mean survival time, dose: 4.0 mg/kg/injection, schedule: Q08DX002 (ip), vehicle: saline 107 % of control | endpoint: mean survival time, dose: 8.0 mg/kg/injection, schedule: Q01DX001 (ip), vehicle: saline 117 % of control | endpoint: mean survival time, dose: 8.0 mg/kg/injection, schedule: Q04DX003 (ip), vehicle: saline 87 % of control | endpoint: mean survival time, dose: 8.0 mg/kg/injection, schedule: Q08DX002 (ip), vehicle: saline 107 % of control | endpoint: mean survival time, dose: 16.0 mg/kg/injection, schedule: Q08DX002 (ip), vehicle: saline 98 % of control | endpoint: median survival time, dose: 0.25 mg/kg/injection, schedule: Q01DX009 (ip), vehicle: saline 100 % of control and 101 % of control | endpoint: median survival time, dose: 0.5 mg/kg/injection, schedule: Q01DX009 (ip), vehicle: saline 105 % of control and 107 % of control | endpoint: median survival time, dose: 1.0 mg/kg/injection, schedule: Q01DX009 (ip), vehicle: saline 110 % of control and 115 % of control

CCCCNC(=O)NC(=O)C(C)(C)Oc1ccc(Cl)cc1
inactive: endpoint: mean survival time, dose: 50.0 mg/kg/injection, schedule: Q01DX009 (ip), vehicle: saline 103 % of control | [1] 103 % of control | [3] 95 % of control

Cc1ccc(S(=O)(=O)OC2CCCCC2c2ccccc2C)cc1 (centres undefined)
inactive: endpoint: mean survival time, dose: 100.0 mg/kg/injection, schedule: Q01DX001 (ip), vehicle: steriod suspending solution 105 % of control | endpoint: mean survival time, dose: 200.0 mg/kg/injection, schedule: Q01DX001 (ip), vehicle: steriod suspending solution 112 % of control | endpoint: mean survival time, dose: 400.0 mg/kg/injection, schedule: Q01DX001 (ip), vehicle: steriod suspending solution 98 % of control
